The source of these data is patent US7977352B2, “Triazolopyridine compounds useful for the treatment of degenerative and inflammatory diseases” (Galapagos NV, priority 2006, dated 2011).

The structures appear in SMILES notation. Some results are limits rather than exact numbers.

Experiment [1] deals with MMP1 expression by activated SFs. Nature of the experiment: MMP assay proof of principle: MMP1 produced by complex trigger activated SFs. It is filed as cell-based. Particulars: Homo sapiens, supernatant of THP-1 cells treated with TNF-a (50% diluted), 48 hrs, FIG. 3, read-out: IC50 value, reduction of MMP1 expression by SFs. The method, then: A 384-well format ELISA for measurement of MMP1 is developed. Various primary antibodies are tested, as well as various ELISA protocols. The following protocol is developed and validated to measure MMP1 levels in SF supernatant in 384 well plates: white Lumitrac 600 384 well plates (Greiner) are coated with 2 μg/mL anti-MMP1 antibody MAB1346 (Chemicon). The antibody is diluted in buffer 40 (1.21 g Tris base (Sigma), 0.58 g NaCl (Calbiochem) and 5 mL 10% NaN3 (Sigma) in 1 L milliQ water and adjusted to pH 8.5). After overnight incubation at 4° C., plates are washed with PBS (80 g NaCl, 2 g KCl (Sigma), 11.5 g Na2HPO4.7H2O and 2 g KH2PO4 in 10 L milliQ; pH 7.4) and blocked with 100 μL/well Casein buffer (2% Casein (VWR International) in PBS). Next day, casein buffer is removed from ELISA plates and replaced by 50 μL/well EC buffer (4 g casein, 2.13 g Na2HPO4 (Sigma), 2 g bovine albumin (Sigma), 0.69 g NaH2PO4.H2O (Sigma), 0.5 g CHAPS (Roche), 23.3 g NaCl, 4 mL 0.5 M EDTA pH 8 (Invitrogen), 5 mL 10% NaN3 in 1 L milliQ and adjusted to pH 7.0). 0.25 mM DTT (Sigma) is added to the thawed sample plates. After removal of the EC buffer, 20 μL of sample is transferred to the ELISA plates. […] Readout is performed on the Luminoscan Ascent Luminometer (Labsystems) with an integration time of 200 msec or with an Envision reader (Perkin Elmer). […]

For experiment [2], the system named is MMP1 expression by activated synovial fibroblasts (RASFs). Nature of the experiment: MMP assay: MMP1 expression by RASFs triggered with TNF-α (MMP1 ELISA). Particulars: Fibroblast, 48 h, TNF-α trigger 10 ng/mL, semi-quantitative score, read-out: REDUCTION MMP1/TNFa. It is filed as cell-based. On the procedure: A 384-well format ELISA for measurement of MMP1 is developed. Various primary antibodies are tested, as well as various ELISA protocols. The following protocol is developed and validated to measure MMP1 levels in SF supernatant in 384 well plates: white Lumitrac 600 384 well plates (Greiner) are coated with 2 μg/mL anti-MMP1 antibody MAB1346 (Chemicon). The antibody is diluted in buffer 40 (1.21 g Tris base (Sigma), 0.58 g NaCl (Calbiochem) and 5 mL 10% NaN3 (Sigma) in 1 L milliQ water and adjusted to pH 8.5). After overnight incubation at 4° C., plates are washed with PBS (80 g NaCl, 2 g KCl (Sigma), 11.5 g Na2HPO4.7H2O and 2 g KH2PO4 in 10 L milliQ; pH 7.4) and blocked with 100 μL/well Casein buffer (2% Casein (VWR International) in PBS). Next day, casein buffer is removed from ELISA plates and replaced by 50 μL/well EC buffer (4 g casein, 2.13 g Na2HPO4 (Sigma), 2 g bovine albumin (Sigma), 0.69 g NaH2PO4.H2O (Sigma), 0.5 g CHAPS (Roche), 23.3 g NaCl, 4 mL 0.5 M EDTA pH 8 (Invitrogen), 5 mL 10% NaN3 in 1 L milliQ and adjusted to pH 7.0). 0.25 mM DTT (Sigma) is added to the thawed sample plates. After removal of the EC buffer, 20 μL of sample is transferred to the ELISA plates. After overnight incubation at 4° C. plates are washed twice with PBS and once with PBST (PBS with 0.05% Tween-20 (Sigma)) and incubated with 35 μL/well biotinylated anti-MMP1 antibody solution (R&D). This secondary antibody is diluted in buffer C (0.82 g NaH2PO4.H2O, 4.82 g Na2HPO4, 46.6 g NaCl, 20 g bovine albumin and 4 mL 0.5M EDTA pH 8 in 2 L milliQ and adjusted to pH 7.0) at a concentration of 5 μg/mL. After 2 h of incubation at RT, plates are washed as described above and incubated with 50 μL/well streptavidin-HRP conjugate (Biosource). Streptavidin-HRP conjugate is diluted in buffer C at a concentration of 0.25 μg/mL. After 45 min, plates are washed as described above and incubated for 5 min with 50 μL/well BM Chem ELISA Substrate (Roche). Readout is performed on the Luminoscan Ascent Luminometer (Labsystems) with an integration time of 200 msec or with an Envision reader (Perkin Elmer).
SFs were acquired at passage 1 from a commercial supplier (Cell applications, Inc.). SFs are cultured in DMEM supplemented with 10% heat-inactivated FBS, 1× penicillin/streptomycin (Invitrogen) at 37° C., 10% CO2 until passage 6. Aliquots of the cells are frozen and cryopreserved in liquid nitrogen. Starting from a cryopreserved aliquot, cells are further expanded by sub-culturing cells at 1/3 ratio every week. Cells between passage 10 and 12 are routinely used in compound testing according to following protocol.
Starting from the compound master stocks (all at 10 mM concentration in 100% DMSO) a 3-fold serial dilution is made in 96-well plates in 100% DMSO. Then, plates are further diluted 45-fold in M199 medium supplemented with 1% heat-inactivated FBS to obtain a intermediate work stock.
At day 1, RASFs are seeded in 96 well plates (flat bottom, tissue culture treated, Greiner) at a density of 3000 cells/well in complete synovial growth medium (Cell Applications). Day 5, the medium is completely removed from the cells, and replaced by 81 μL of M199 medium supplemented with 1% heat-inactivated FBS followed by addition of 10 μL compound out of the intermediate work stock. After an incubation period of 90 minutes, which allows the compounds to equilibrate and enter the cells, cells are stimulated with either TNF-α or ‘complex trigger’. TNF-α trigger is added in a volume of […] to obtain final concentration of 10 ng/mL. For that, TNF-α stock (PeproTech) at 10 μg/mL was diluted to 100 ng/mL TNF-a in M199 medium supplemented with 1% FBS. ‘Complex trigger’ mix is added in a volume of 20 μL to obtain a final concentration of 12.5%. For that, ‘complex trigger’ mix, is diluted to 80% with M199 medium supplemented with 1% FBS. […]
For orientation: ELISA stands for enzyme-linked immunosorbent assay.

Another experiment has as its target T1, TAK1-TAB1 fusion protein (Homo sapiens, UniProt O43318).
T1 construct: purchased Upstate 14-600
T1 sequence (O43318 with tags, fused parts or gaps limits assumed): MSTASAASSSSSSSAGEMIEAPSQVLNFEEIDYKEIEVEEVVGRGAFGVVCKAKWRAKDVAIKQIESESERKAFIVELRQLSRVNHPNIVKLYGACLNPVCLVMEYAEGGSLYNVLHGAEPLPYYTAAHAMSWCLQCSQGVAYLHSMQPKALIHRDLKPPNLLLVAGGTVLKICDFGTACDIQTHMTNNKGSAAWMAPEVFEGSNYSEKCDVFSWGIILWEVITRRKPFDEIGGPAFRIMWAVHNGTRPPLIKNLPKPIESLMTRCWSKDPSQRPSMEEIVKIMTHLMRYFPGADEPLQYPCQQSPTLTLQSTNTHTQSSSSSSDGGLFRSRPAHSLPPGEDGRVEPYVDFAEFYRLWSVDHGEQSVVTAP
Briefly: In vitro TAK1 kinase assay. It is filed as biochemical. Particulars: casein substrate, [33P]-γ-ATP, 90 minutes at 30° C., semi-quantitative score, read-out: POTENCY TAK1 (MAP3K7). On the procedure:
For assessing TAK1 inhibition, active TAK1-TAB1 fusion protein was used from Upstate (Cat. No, 14-600). Kinase reactions are set up in 96-well polypropylene plates in 25 μL containing 0.5 mU TAK1-TAB1 fusion protein, 5mM ATP, 0.01 μCi/μL [^33P]-γ-ATP, 0.1 mg/mL casein substrate in 1× reaction buffer containing 10 mM MOPS pH 7.0, 1 mM EDTA.
Starting from the compound master stocks (all at 10 mM concentration in 100% DMSO) a 3-fold serial dilution is made in 96-well plates in 100% DMSO. Plates are further diluted […] in H2O containing 3.5% DMSO, to obtain an intermediate work stock with compounds at 5× the final assay concentration in 5% DMSO.
5 μL of the intermediate stock is transferred into V-bottom 96 well polypropylene plates and 11 μL of Enzyme mix is added. Enzyme mix is made by combining 5 μL 5× reaction buffer ([…] pH 7.0, 1 mM EDTA), 5 μL casein (Sigma) diluted in H20 to 0.5 mg/mL and 1 μL of TAK1-TAB1 fusion protein that was prediluted to 0.5 mU/μL in 1× enzyme dilution buffer (20 mM MOPS pH 7.0, 0.1 mM EDTA, 0.01% Brij-35, 5% glycerol, 1 mM DTT, 1 mg/ml BSA).
The reactions are started by the addition of 9 μL of mixture containing ATP (20.83 uM) and [^33P]-γ-ATP (0.028 μCi/μL).
The assay is stopped 90 minutes after incubation at 30° C. by the addition of 25 μL phosphoric acid (150 mM). The label incorporated into the casein substrate is separated from labeled unincorporated ATP by filtration onto 96-well filter plates using a harvester device. After 6 washes with 75 mM phosphoric acid, the bottom of the filter plates are sealed, and incorporated label is quantified after addition of 40 μL scintillation fluid using TopCount.

`C[C@@H]1C[C@H]2[C@@H]3CCC4=CC(=O)C=C[C@]4(C)[C@@]3(F)[C@@H](O)C[C@]2(C)[C@@]1(O)C(=O)CO` [dexamethasone]: the IC50 in experiment [1] is ~0.001 µM. `C[C@@H]1CN(C)[C@@H](C)CN1c1ccc(Nc2ccc(-c3cc[nH]c(=O)c3)n3ncnc23)cc1` (racemic) [Example 10, rel-4-[8-({4-[(2R,5S)-2,4,5-trimethylpiperazin-1-yl]phenyl}amino)[1,2,4]triazolo[1,5-a]pyridin-5-yl]pyridin-2(1H)-one]: the IC50 in experiment [2] is 0.501 to 1 µM; on TAK1-TAB1 fusion protein it was < 0.5 µM. The matching figures for `CCN1CCN(c2ccc(Nc3ccc(-c4cc[nH]c(=O)c4)n4ncnc34)cc2)CC1` [Example 19, 4-(8-{[4-(4-ethylpiperazin-1-yl)phenyl]amino}[1,2,4]triazolo[1,5-a]pyridin-5-yl)pyridin-2(1H)-one]: 1 to 5 µM and < 0.5 µM. As for `C[C@@H]1CN(c2ccc(Nc3ccc(-c4cc[nH]c(=O)c4)n4ncnc34)cc2)C[C@H](C)N1C` [Example 57, 4-[8-({4-[(3R,5S)-3,4,5-trimethylpiperazin-1-yl]phenyl}amino)[1,2,4]triazolo[1,5-a]pyridin-5-yl]pyridin-2(1H)-one], the IC50 was 1 to 5 µM in experiment [2] and < 0.5 µM on TAK1-TAB1 fusion protein. Consider `COc1cc(-c2ccc(Nc3ccc(N4CCN(CCC(C)C)CC4)cc3)c3ncnn23)ccn1` [Example 29, 5-(2-methoxypyridin-4-yl)-N-{4-[4-(3-methylbutyl)piperazin-1-yl]phenyl}[1,2,4]triazolo[1,5-a]pyridin-8-amine], for which the IC50 in experiment [2] was 1 to 5 µM; on TAK1-TAB1 fusion protein, > 10 µM. In the case of `CC(C)CCN1CCN(c2ccc(Nc3ccc(-c4cc[nH]c(=O)c4)n4ncnc34)cc2)CC1` [Example 22, 4-[8-({4-[4-(3-methylbutyl)piperazin-1-yl]phenyl}amino)[1,2,4]triazolo[1,5-a]pyridin-5-yl]pyridin-2(1H)-one], the results for the IC50 (in experiment [2]; at TAK1-TAB1 fusion protein) were 1 to 5 µM and < 0.5 µM, respectively. The like results for `CCN1CCN(c2ccc(Nc3ccc(-c4ccnc(OC)c4)n4ncnc34)cc2)CC1` [Example 26, N-[4-(4-ethylpiperazin-1-yl)phenyl]-5-(2-methoxypyridin-4-yl)[1,2,4]triazolo[1,5-a]pyridin-8-amine] were, in that order, 1 to 5 µM and > 10 µM.

In the case of `CCN1CCN(c2ccc(Nc3ccc(-c4ccc(C(N)=O)cc4)n4ncnc34)cc2)CC1` [Example 12, 4-(8-{[4-(4-ethylpiperazin-1-yl)phenyl]amino}[1,2,4]triazolo[1,5-a]pyridin-5-yl)benzamide], the IC50 (in experiment [2]; on TAK1-TAB1 fusion protein) was < 0.5 µM throughout. With `NC(=O)c1ccc(-c2ccc(Nc3ccc(N4CCN(C5CC5)CC4)cc3)c3ncnn23)cc1` [Example 18, 4-(8-{[4-(4-cyclopropylpiperazin-1-yl)phenyl]amino}[1,2,4]triazolo[1,5-a]pyridin-5-yl)benzamide], the IC50 (in experiment [2]; at TAK1-TAB1 fusion protein) was 1 to 5 µM throughout. With `c1nc2c(Nc3ccc(N4CCN(C5CCC5)CC4)cc3)ccc(-c3cn[nH]c3)n2n1` [Example 35, N-[4-(4-cyclobutylpiperazin-1-yl)phenyl]-5-(1H-pyrazol-4-yl)[1,2,4]triazolo[1,5-a]pyridin-8-amine], the IC50 was > 10 µM in experiment [2] and < 0.5 µM at TAK1-TAB1 fusion protein. As for `NC(=O)c1cccc(-c2ccc(Nc3ccc(N4CCOCC4)cc3)c3ncnn23)c1` [Example 43, 3-{8-[(4-morpholin-4-ylphenyl)amino][1,2,4]triazolo[1,5-a]pyridin-5-yl}benzamide], the IC50 (in experiment [2]; on TAK1-TAB1 fusion protein) was > 10 µM each time.
